One test deals with sapje zebrafish. In words: Rescue of the dystrophic phenotype (muscle integrity, actin:GFP) in sapje zebrafish embryos. Type of test: in vivo. Conditions: sapje embryos treated from 24 hpf; actin:GFP as marker of muscle integrity. How it is done:
Zebrafish embryos were collected from group matings of heterozygous sapje ta222a (a dystrophin mutant) and homozygous for a transgene that labels all the fast muscle with GFP (actin:GFP;). At 24 hours post fertilization (hpf) embryos were dechorionated enzymatically, washed and arrayed into multiwell plates with 40 embryos per treatment (5 embryos per well). Sapje embryos are produced at normal Mendelian frequencies, so from 40 embryos we expect 10 homozygote for sapje. Compounds to be tested were added to a final concentration based on available clinical or mouse studies for EC50. All plates included negative controls. Live embryos were assayed for muscle degeneration using actin:GFP as a marker of muscle integrity in sapje fish. Fluorescent scans for GFP along the body axis of wildtype siblings or mutant fish reveal a dramatic profile of fluorescence intensity which clearly distinguished the normal muscle from damaged muscle.

The test system of test [1] is β-dystroglycan. In words: Western blot analysis of β-dystroglycan and phosphorylated β-dystroglycan in sapje fish. Type of test: in vivo, zebrafish. Conditions: 1 μM MG132, western blot. How it is done:
FIG. 16. Illustrates western blot analysis of β-dystroglycan (β-DG) and phosphorylated β-dystroglycan (p β-DG) in sapje fish (blue bars) and in sapje fish treated with 1 μM of the proteasomal inhibitor MG132 (purple bars).

Test [2] has as its target T1, ubiquitin activating enzyme E1 (Homo sapiens, UniProt P22314).
T1 sequence (P22314 1-1058): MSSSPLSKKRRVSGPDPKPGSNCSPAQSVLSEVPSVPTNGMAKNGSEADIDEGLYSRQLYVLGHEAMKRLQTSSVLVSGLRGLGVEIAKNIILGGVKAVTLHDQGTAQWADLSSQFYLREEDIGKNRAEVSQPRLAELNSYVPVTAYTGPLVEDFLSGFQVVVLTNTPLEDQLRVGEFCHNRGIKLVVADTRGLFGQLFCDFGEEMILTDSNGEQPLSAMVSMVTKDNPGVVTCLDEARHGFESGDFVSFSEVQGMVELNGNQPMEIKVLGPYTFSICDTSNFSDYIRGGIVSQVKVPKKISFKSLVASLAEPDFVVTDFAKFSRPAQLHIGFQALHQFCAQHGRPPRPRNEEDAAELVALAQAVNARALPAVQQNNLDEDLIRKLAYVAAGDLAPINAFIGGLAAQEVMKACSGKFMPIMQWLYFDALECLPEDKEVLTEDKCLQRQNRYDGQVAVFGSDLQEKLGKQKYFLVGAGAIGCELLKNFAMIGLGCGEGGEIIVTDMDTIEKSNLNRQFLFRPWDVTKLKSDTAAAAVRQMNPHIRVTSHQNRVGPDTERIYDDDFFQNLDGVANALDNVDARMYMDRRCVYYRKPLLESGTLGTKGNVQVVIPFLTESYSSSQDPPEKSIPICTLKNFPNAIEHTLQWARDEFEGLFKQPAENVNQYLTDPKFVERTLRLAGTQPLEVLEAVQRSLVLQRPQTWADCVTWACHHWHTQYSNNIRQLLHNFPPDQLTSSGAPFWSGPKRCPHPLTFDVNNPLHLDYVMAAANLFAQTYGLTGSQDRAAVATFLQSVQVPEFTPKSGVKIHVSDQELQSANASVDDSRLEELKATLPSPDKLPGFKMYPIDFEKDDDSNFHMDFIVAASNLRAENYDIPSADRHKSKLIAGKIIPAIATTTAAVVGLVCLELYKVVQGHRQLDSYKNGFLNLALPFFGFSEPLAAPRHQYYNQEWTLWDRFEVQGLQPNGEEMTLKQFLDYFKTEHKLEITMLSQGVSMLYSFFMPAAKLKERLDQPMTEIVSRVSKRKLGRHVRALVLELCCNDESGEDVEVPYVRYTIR
The settings on record: reference 51; cited from earlier work.

The subject of test [3] is β-dystroglycan. In words: β-dystroglycan ubiquitination after protein tyrosine phosphatase inhibition in myoblast cells expressing HA-tagged ubiquitin. Type of test: cell-based. Conditions: immunoprecipitation and western blot. An excerpt:
Tyrosine phosphatases were inhibited in myoblast cells in vitro using peroxyvanadate and samples from cells expressing HA-tagged ubiquitin were taken for immunoprecipitation and western blot analysis. Immunoprecipitation with either the HA tag, or β-dystroglycan at various time points was followed by Western blotting for the HA epitope, β-dystroglycan or tubulin as a loading control.
Background: In western blotting, separated proteins are transferred to a membrane and probed.

A further test concerns mdx mouse. Conditions: Gazzerro et al. 2010; cited from earlier work.

Entries after “also recorded” stand apart in the source; their conditions may differ. Where a SMILES comes first, the peptide text is derived from it. The star is where a group is joined. Cbz = O=C(OCc1ccccc1)*

We go through five molecules from US9707265B2, “Treatment of muscular dystrophy” (The University of Sheffield, priority 2012, dated 2017).

As to `CC(C)C[C@H](NC(=O)[C@H](CCc1ccccc1)NC(=O)CN1CCOCC1)C(=O)N[C@@H](Cc1ccccc1)C(=O)N[C@@H](CC(C)C)C(=O)[C@@]1(C)CO1` [Carfilzomib], the “effect on the dystrophic phenotype of sapje zebrafish” value (“effect on the dystrophic phenotype” for short) with sapje zebrafish is listed as “dose dependent rescue”.
For the molecule `CC(C)C[C@@H](C=O)NC(=O)[C@H](CC(C)C)NC(=O)[C@H](CC(C)C)NC(=O)OCc1ccccc1` [MG132] (Cbz-Leu-Leu-Leu-aldehyde), the “effect on the dystrophic phenotype” value in the test with sapje zebrafish is “dose dependent rescue”. In addition, in the test on β-dystroglycan [1], the “amount of non-phosphorylated b-dystroglycan in treated sapje fish” value is on record as “significant increase” and the “amount of phosphorylated b-dystroglycan in treated sapje fish” value is “significant increase”.
Turning to `CCOC(=O)c1ccc(N2NC(=O)/C(=C/c3ccc([N+](=O)[O-])o3)C2=O)cc1` [Pyr-41], in the test on sapje zebrafish, the “effect on the dystrophic phenotype” value is “small but positive benefit; also recorded: dose dependent rescue”. For the same molecule, the “inhibition of ubiquitin activating enzyme E1” value in test [2] was “inhibit the ubiquitin activating enzyme E1”.
For peroxyvanadate, in the test on β-dystroglycan [3], the “ubiquitin-β-dystroglycan bands over time course of treatment” value is “increase in the proportion and number of ubiquitin-β-dystroglycan bands”.
Consider `CC(C)C[C@H](NC(=O)[C@H](Cc1ccccc1)NC(=O)c1cnccn1)B(O)O` [bortezomib], for which the “effect on the dystrophic phenotype” value in the test with sapje zebrafish was “Qualitatively similar results; also recorded: dose dependent rescue”. Moreover, the “restoration of DGC components” value in the test with mdx mouse was “restore DGC components”.
